This passage reports EC50, inhibition and IC50 results from ChEMBL document CHEMBL2346651, “Structure-activity relationship study of tachykinin peptides for the development of novel neurokinin-3 receptor selective agonists” (Bioorg Med Chem, 2013).

As usually defined, the EC50 is the concentration giving half of the maximal effect. For orientation: inhibition means the drop in the measured response relative to a control, in per cent. Lower therefore signals a response near the control. The term IC50 denotes the concentration at which inhibition is half-maximal. Read a low IC50 as higher potency.

In assay [1] the target is T1, Neuromedin-K receptor (Homo sapiens, UniProt P29371).
T1 sequence (P29371 whole entry): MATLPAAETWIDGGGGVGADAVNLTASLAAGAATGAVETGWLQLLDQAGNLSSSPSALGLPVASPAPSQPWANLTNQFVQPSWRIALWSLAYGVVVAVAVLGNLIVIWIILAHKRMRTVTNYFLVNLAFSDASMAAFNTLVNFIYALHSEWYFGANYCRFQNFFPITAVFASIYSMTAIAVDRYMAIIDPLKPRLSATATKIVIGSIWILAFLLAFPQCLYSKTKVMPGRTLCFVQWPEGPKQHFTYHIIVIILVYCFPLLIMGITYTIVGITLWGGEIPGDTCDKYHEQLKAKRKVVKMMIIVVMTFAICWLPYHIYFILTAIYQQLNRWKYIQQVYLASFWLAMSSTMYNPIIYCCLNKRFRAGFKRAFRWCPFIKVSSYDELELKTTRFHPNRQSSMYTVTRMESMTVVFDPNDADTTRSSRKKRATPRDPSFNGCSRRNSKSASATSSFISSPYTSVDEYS
Put plainly: Agonist activity at NK3R (unknown origin) transfected in CHO cells assessed as calcium influx […]. Format: functional, cell-based.

Assay [2] deals with Substance-P receptor (Homo sapiens) (UniProt P25103). Put plainly: Displacement of [125I]-BH-SP from NK1R (unknown origin) transfected in CHO cells at 10 uM by gamma counting analysis. Type of assay: cell-based.
Sequence of Substance-P receptor (Homo sapiens) (P25103 whole entry): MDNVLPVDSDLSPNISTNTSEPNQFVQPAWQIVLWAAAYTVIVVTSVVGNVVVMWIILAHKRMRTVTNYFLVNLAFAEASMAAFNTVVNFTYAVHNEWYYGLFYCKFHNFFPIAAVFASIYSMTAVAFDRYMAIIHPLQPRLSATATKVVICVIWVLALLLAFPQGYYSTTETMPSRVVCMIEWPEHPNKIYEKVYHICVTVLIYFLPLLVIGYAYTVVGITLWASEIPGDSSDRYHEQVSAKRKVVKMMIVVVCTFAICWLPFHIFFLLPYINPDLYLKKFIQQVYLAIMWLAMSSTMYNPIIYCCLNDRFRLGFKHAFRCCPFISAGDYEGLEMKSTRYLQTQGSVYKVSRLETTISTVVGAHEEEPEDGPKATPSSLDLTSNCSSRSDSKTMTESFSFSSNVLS
Assay [3] addresses T1, Neuromedin-K receptor. The assay can be described thus: Displacement of ([125I]-His3, MePhe7)-NKB from NK3R (unknown origin) transfected in CHO cells by gamma counting analysis. Format: cell-based.
Assay [4] concerns the target T2, Substance-K receptor (Homo sapiens) (UniProt P21452).
T2 sequence (whole entry): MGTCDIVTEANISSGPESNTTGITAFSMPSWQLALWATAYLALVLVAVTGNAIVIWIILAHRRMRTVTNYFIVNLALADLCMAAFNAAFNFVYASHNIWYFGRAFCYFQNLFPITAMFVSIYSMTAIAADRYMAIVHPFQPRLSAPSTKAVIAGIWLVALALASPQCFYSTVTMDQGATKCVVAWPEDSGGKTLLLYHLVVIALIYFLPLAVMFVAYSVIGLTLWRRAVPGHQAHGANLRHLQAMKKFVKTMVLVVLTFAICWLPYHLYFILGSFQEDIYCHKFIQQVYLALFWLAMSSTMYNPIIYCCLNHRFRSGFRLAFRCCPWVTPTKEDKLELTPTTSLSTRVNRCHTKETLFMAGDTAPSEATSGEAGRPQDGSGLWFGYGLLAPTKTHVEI
The assay can be described thus: Displacement of [125I]-NKA from NK2R (unknown origin) transfected in CHO cells at 10 uM by gamma counting analysis. Format: cell-based. (Displacement assays read how much labelled ligand stays bound in the presence of the test substance.)

Residues, ends and D or L forms follow the SMILES beside them.

With `CSCC[C@H](NC(=O)[C@H](CC(C)C)NC(=O)CNC(=O)[C@H](Cc1ccccc1)N(C)C(=O)[C@H](Cc1ccccc1)NC(=O)[C@H](Cc1ccccc1)NC(=O)[C@H](CC(=O)O)NC(=O)[C@H](Cc1cnc[nH]1)NC(=O)[C@H](CCSC)NC(=O)[C@@H](N)CC(=O)O)C(N)=O` (HELM PEPTIDE1{D.M.H.D.F.F.[meF].G.L.M.[am]}$$$$V2.0), at Neuromedin-K receptor [1], the EC50 was determined as 0.013 nM. Also, the inhibition in assay [2] was under 10%; in assay [4] it was 57%. For the same molecule, at Neuromedin-K receptor [3], the IC50 worked out at 3 nM.
For `CSCC[C@H](NC(=O)[C@H](CC(C)C)NC(=O)CNC(=O)[C@H](Cc1ccccc1)N(C)C(=O)[C@H](Cc1ccccc1)NC(=O)[C@@H](NC(=O)[C@H](CC(=O)O)NC(=O)[C@H](Cc1cnc[nH]1)NC(=O)[C@H](CCSC)NC(=O)[C@@H](N)CC(=O)O)C(C)C)C(N)=O` (HELM PEPTIDE1{D.M.H.D.V.F.[meF].G.L.M.[am]}$$$$V2.0) the same measures were 0.065 nM, under 10%, 29% and 1.5 nM.
For H-DTGDKFYGLM-NH2 [SIALOKININ II] the same measures were 10.9 nM, 99%, 98% and 1930 nM.
As to `CSCC[C@H](NC(=O)[C@H](CC(C)C)NC(=O)CNC(=O)[C@H](Cc1ccccc1)N(C)C(=O)[C@H](Cc1ccccc1)NC(=O)CNC(=O)[C@H](CC(=O)O)NC(=O)[C@H](Cc1cnc[nH]1)NC(=O)[C@H](CCSC)NC(=O)[C@@H](N)CC(=O)O)C(N)=O` (HELM PEPTIDE1{D.M.H.D.G.F.[meF].G.L.M.[am]}$$$$V2.0), on Neuromedin-K receptor [1], the EC50 is 0.036 nM. The values for the inhibition in assay [2] and in assay [4] were under 10% and 22%, respectively. Besides, at Neuromedin-K receptor [3], the IC50 amounted to 13 nM.
The matching figures for `CSCC[C@H](NC(=O)[C@H](CC(C)C)NC(=O)CNC(=O)[C@H](Cc1ccccc1)N(C)C(=O)[C@H](Cc1ccccc1)NC(=O)[C@H](Cc1cnc[nH]1)NC(=O)[C@H](CC(=O)O)NC(=O)[C@H](Cc1cnc[nH]1)NC(=O)[C@H](CCSC)NC(=O)[C@@H](N)CC(=O)O)C(N)=O` (HELM PEPTIDE1{D.M.H.D.H.F.[meF].G.L.M.[am]}$$$$V2.0): 0.017 nM, under 10%, 47% and 5.9 nM.
The matching figures for `CSCC[C@H](NC(=O)[C@H](CC(C)C)NC(=O)CNC(=O)[C@H](Cc1ccccc1)N(C)C(=O)[C@H](Cc1ccccc1)NC(=O)[C@H](CC(=O)O)NC(=O)[C@H](CC(N)=O)NC(=O)[C@@H]1CCCN1C(=O)[C@H](CO)NC(=O)[C@@H]1CCCN1C(=O)[C@@H]1CCC(=O)N1)C(N)=O` (HELM PEPTIDE1{[Glp].P.S.P.N.D.F.[meF].G.L.M.[am]}$$$$V2.0): 0.13 nM, under 10%, under 10% and 17 nM.
For `CSCC[C@H](NC(=O)[C@H](CC(C)C)NC(=O)CNC(=O)[C@H](Cc1ccc(O)cc1)NC(=O)[C@H](Cc1ccccc1)NC(=O)[C@H](CCC(=O)O)NC(=O)[C@H](CC(=O)O)NC(=O)[C@@H]1CCCN1C(=O)[C@H](CC(N)=O)NC(=O)[C@@H]1CCCN1C(=O)[C@@H]1CCC(=O)N1)C(N)=O` (HELM PEPTIDE1{[Glp].P.N.P.D.E.F.Y.G.L.M.[am]}$$$$V2.0) the same measures were 1.38 nM, 98%, under 10% and 710 nM.
For the molecule `CSCC[C@H](NC(=O)[C@H](CC(C)C)NC(=O)CNC(=O)[C@@H](NC(=O)[C@H](Cc1ccccc1)NC(=O)[C@H](CCC(=O)O)NC(=O)[C@H](CC(=O)O)NC(=O)[C@@H]1CCCN1C(=O)[C@H](CC(N)=O)NC(=O)[C@@H]1CCCN1C(=O)[C@@H]1CCC(=O)N1)C(C)C)C(N)=O` (HELM PEPTIDE1{[Glp].P.N.P.D.E.F.V.G.L.M.[am]}$$$$V2.0), at Neuromedin-K receptor [1], the EC50 is 0.079 nM. The inhibition in assay [2] amounted to 94%; in assay [4] it was 92%. Moreover, at Neuromedin-K receptor [3], the IC50 worked out at 53 nM.
The matching figures for `CSCC[C@H](NC(=O)[C@H](CC(C)C)NC(=O)CNC(=O)[C@H](Cc1ccccc1)N(C)C(=O)[C@H](Cc1ccccc1)NC(=O)[C@@H](NC(=O)[C@H](CC(=O)O)NC(=O)[C@H](Cc1cnc[nH]1)NC(=O)[C@H](CCSC)NC(=O)[C@@H](N)CC(=O)O)[C@@H](C)O)C(N)=O` (HELM PEPTIDE1{D.M.H.D.T.F.[meF].G.L.M.[am]}$$$$V2.0): 0.046 nM, under 10%, 19% and 4.3 nM.
For `CSCC[C@H](NC(=O)[C@H](CC(C)C)NC(=O)CNC(=O)[C@H](Cc1ccccc1)N(C)C(=O)[C@H](Cc1ccccc1)NC(=O)[C@H](CC(=O)O)NC(=O)[C@H](CC(N)=O)NC(=O)[C@@H]1CCCN1C(=O)[C@H](CC(=O)O)NC(=O)[C@H](C)NC(=O)[C@@H]1CCC(=O)N1)C(N)=O` (HELM PEPTIDE1{[Glp].A.D.P.N.D.F.[meF].G.L.M.[am]}$$$$V2.0) the same measures were 0.15 nM, 87%, under 10% and 54 nM.
The matching figures for `CSCC[C@H](NC(=O)[C@H](CC(C)C)NC(=O)CNC(=O)[C@H](Cc1ccccc1)N(C)C(=O)[C@H](Cc1ccccc1)NC(=O)[C@H](CC(=O)O)NC(=O)[C@H](CC(=O)O)NC(=O)[C@H](CO)NC(=O)[C@H](CCCCN)NC(=O)[C@@H]1CCCN1C(=O)[C@@H](NC(=O)[C@@H](N)CC(=O)O)C(C)C)C(N)=O` (HELM PEPTIDE1{D.V.P.K.S.D.D.F.[meF].G.L.M.[am]}$$$$V2.0): 0.085 nM, under 10%, under 10% and 27 nM.
For the molecule `CSCC[C@H](NC(=O)[C@H](CC(C)C)NC(=O)CNC(=O)[C@H](Cc1ccccc1)N(C)C(=O)[C@H](Cc1ccccc1)NC(=O)[C@H](CC(=O)O)NC(=O)[C@H](CC(=O)O)NC(=O)[C@H](Cc1cnc[nH]1)NC(=O)[C@H](CCSC)NC(=O)[C@@H](N)CC(=O)O)C(N)=O` (HELM PEPTIDE1{D.M.H.D.D.F.[meF].G.L.M.[am]}$$$$V2.0), the concentration giving a half-maximal response (EC50) on Neuromedin-K receptor [1] worked out at 0.04 nM. The inhibition in assay [2] and in assay [4] was under 10% in each case. The IC50 on Neuromedin-K receptor [3] came out at 38 nM.
`CSCC[C@H](NC(=O)[C@H](CC(C)C)NC(=O)CNC(=O)[C@H](Cc1ccccc1)N(C)C(=O)[C@H](Cc1ccccc1)NC(=O)[C@H](CC(N)=O)NC(=O)[C@H](CC(=O)O)NC(=O)[C@H](Cc1cnc[nH]1)NC(=O)[C@H](CCSC)NC(=O)[C@@H](N)CC(=O)O)C(N)=O` (HELM PEPTIDE1{D.M.H.D.N.F.[meF].G.L.M.[am]}$$$$V2.0): on Neuromedin-K receptor [1], the EC50 was determined as 0.036 nM. In addition, the inhibition in assay [2] is under 10%; in assay [4] it was 10%. On Neuromedin-K receptor [3], this molecule showed an IC50 of 18 nM.
The matching figures for `CSCC[C@H](NC(=O)[C@H](CC(C)C)NC(=O)CNC(=O)[C@H](Cc1ccccc1)N(C)C(=O)[C@H](Cc1ccccc1)NC(=O)[C@H](Cc1c[nH]c2ccccc12)NC(=O)[C@H](CC(=O)O)NC(=O)[C@H](Cc1cnc[nH]1)NC(=O)[C@H](CCSC)NC(=O)[C@@H](N)CC(=O)O)C(N)=O` (HELM PEPTIDE1{D.M.H.D.W.F.[meF].G.L.M.[am]}$$$$V2.0): 0.28 nM, under 10%, 79% and 1.8 nM.
